Results published in patent publication US20240417410A1, “TRICYCLIC COMPOUNDS FOR THE TREATMENT OF CANCER” (Hoffmann-La Roche Inc., priority 2023, published 2024).
Where two headings read alike, the source gives them in different places.

Key:
Assay in all cases: Cell proliferation, CTG 3D, 7 d
Format in all cases: cell-based
[1] = system: AsPc-1; details: Homo sapiens, ASPC1; AsPc-1, KRAS (G12D)
Method: (§1) On Day-1, cells were plated in 384-well round-bottom ultra-low adhesion plates (cat. Corning 3830, with cell density adjusted according to Table 3. The assay plate was then centrifuged at 1000 rpm for 1 minute to ensure even distribution of cells. The plate was incubated at 37° C. in a 5% CO2 atmosphere (It is worth noting that for SW1271 cell plate, it needs to be incubated in an incubator without additional CO2).
(§2) On Day 0, Example 24 or A122 was added to each well using a Tecan HP D300E dispenser, with a 3-fold dilution across 9 doses. The final concentration of DMSO was normalized to 0.2%. The assay plate was then centrifuged at 1000 rpm for 1 minute and incubated for 7 days.
(§3) On Day 7, CellTiter-Glo (CTG) 3D reagent (Promega G9683) was dispensed into each well of a 384-well plate using a multi-drop dispenser (Thermo Scientific 66413). A liquid handling automation workstation (Bravo with a 384-well head) was used to mix the CTG reagents. Plates were left on a shaker for 30 minutes at 450 rpm, shielded from light.
(§4) For data analysis, the XL-fit software (Supplier: ID Business Solutions Ltd., Software version: XL fit 5.0) was utilized. The percentage of inhibition was calculated using the formula: Inhibition %=(Max-Sample value)/(Max-Min)×100. Curve fitting was performed as follows: For complete dose-response curves, the relative IC50 was reported from the fit. For incomplete curves, if minimal inhibition was greater than 50%, an IC50 less than the lowest compound concentration was reported. If minimal inhibition was between 20% and 50%, the bottom was locked at 0% and the IC50 was reported. If maximal inhibition was less than 50%, an IC50 greater than the highest compound concentration was reported.

[2] = system: BEN; details: Homo sapiens, KRAS (WT ampl)
Method: as §1, §2, §3, §4

[3] = system: Capan-2; details: Homo sapiens
Method: as §1, §2, §3, §4

[4] = system: HT-1197; details: Homo sapiens, HT1197
Method: as §1, §2, §3, §4

[5] = system: HT1080; details: Homo sapiens, HT-1080
Method: as §1, §2, §3, §4

[6] = system: Hs-766T; details: Homo sapiens, Hs766T
Method: as §1, §2, §3, §4

[7] = system: KLE; details: Homo sapiens, KRAS (WT ampl)
Method: as §1, §2, §3, §4

[8] = system: KMS-28BM; details: Homo sapiens
Method: as §1, §2, §3, §4

[9] = system: KURAMOCHI; details: Homo sapiens, KRAS (WT ampl)
Method: as §1, §2, §3, §4

[10] = system: MDA-MB-231; details: Homo sapiens
Method: as §1, §2, §3, §4

[11] = system: MOLT-4; details: Homo sapiens; MOLT-4, NRAS (p.G12C)
Method: as §1, §2, §3, §4

[12] = system: NCI-H1573; details: Homo sapiens
Method: as §1, §2, §3, §4

[13] = system: NCI-H1792; details: Homo sapiens; NCI-H1792, KRAS (G12C)
Method: as §1, §2, §3, §4

[14] = system: NCI-H1944; details: Homo sapiens
Method: as §1, §2, §3, §4

[15] = system: NCI-H358; details: Homo sapiens; NCI-H358, KRAS (G12C)
Method: as §1, §2, §3, §4

[16] = system: NCI-H727; details: Homo sapiens; NCI-H727, KRAS (G12V)
Method: as §1, §2, §3, §4

[17] = system: NOMO-1; details: Homo sapiens
Method: as §1, §2, §3, §4

[18] = system: OCI-Ly19; details: Homo sapiens
Method: as §1, §2, §3, §4

[19] = system: ONS-76; details: Homo sapiens
Method: as §1, §2, §3, §4

[20] = system: PA-1; details: Homo sapiens; PA-1, NRAS (p.G12D)
Method: as §1, §2, §3, §4

[21] = system: PSN-1; details: Homo sapiens, PSN1
Method: as §1, §2, §3, §4

[22] = system: RCM-1; details: Homo sapiens; RCM-1, KRAS (G12V)
Method: as §1, §2, §3, §4

[23] = system: SK-N-AS; details: Homo sapiens
Method: as §1, §2, §3, §4

[24] = system: SKM-1; details: Homo sapiens
Method: as §1, §2, §3, §4

[25] = system: SW 1990; details: Homo sapiens, SW1990; SW 1990, KRAS (G12D)
Method: as §1, §2, §3, §4

[26] = system: SW 948; details: Homo sapiens, SW948
Method: as §1, §2, §3, §4

[27] = system: TT; details: Homo sapiens, KRAS (WT ampl)
Method: as §1, §2, §3, §4

[28] = system: Toledo; details: Homo sapiens
Method: as §1, §2, §3, §4

Work on `CO[C@@H](C)c1ncc(N2CCN(C)CC2)cc1-c1c2c3cc(cc4c3n1CCC4)-c1csc(n1)C[C@H](NC(=O)[C@H]1[C@H](C)[C@@H]1C)C(=O)N1CCC[C@H](N1)C(=O)OCC(C)(C)C2` (atropisomer, axis not shown; (M)) [Example 24, (1r,2R,3S)-N-[(7S,13S)-(20M)-20-[2-[(1S)-1-methoxyethyl]-5-(4-methylpiperazin-1-yl)-3-pyridyl]-17,17-dimethyl-8,14-dioxo-15-oxa-4-thia-9,21,30,31-tetrazahexacyclo[23.3.1.1^2,5.1^9,13.0^19,27.0^21,26]hentriaconta-1 (28),2,5 (31), 19,25 (29),26-hexaen-7-yl]-2,3-dimethyl-cyclopropanecarboxamide] yielded an IC50 [1] of 0.65 nM, an IC50 [2] of 40 nM and an IC50 ([3]; Capan-2) of 0.23 nM. The IC50 ([4]; HT-1197, NRAS (p.Q61R), read-out: IC50) was 1.4 nM, the IC50 ([5]; HT1080, NRAS (p.Q61K), read-out: IC50) was 0.36 nM and the IC50 ([6]; Hs-766T, KRAS (Q61H), read-out: IC50) was 100 nM. For the same compound, the IC50 [7] was 100 nM, the IC50 ([8]; KRAS (G12A), read-out: IC50) was 0.63 nM and the IC50 [9] was 100 nM. For the same compound, the IC50 ([10]; MDA-MB-231, KRAS (G13D), read-out: IC50) was 27 nM, the IC50 [11] was 1000 nM and the IC50 ([12]; NCI-H1573, KRAS (G12A), read-out: IC50) was 0.82 nM. For the same compound, the IC50 [13] was 0.21 nM, the IC50 ([14]; NCI-H1944, KRAS (G13D), read-out: IC50) was 1.6 nM and the IC50 [15] was 0.12 nM. It also gave an IC50 [16] of 0.14 nM, an IC50 ([17]; NOMO-1, KRAS (G13D), read-out: IC50) of 0.47 nM and an IC50 ([18]; OCI-Ly19, NRAS (p.Q61K), read-out: IC50) of 1.9 nM. For the same compound, the IC50 ([19]; ONS-76, NRAS (p.Q61R), read-out: IC50) was 0.9 nM, the IC50 [20] was 0.46 nM and the IC50 ([21]; PSN-1, KRAS (G12R), read-out: IC50) was 0.85 nM. For the same compound, the IC50 [22] was 2.2 nM, the IC50 ([23]; NRAS (p.Q61K), read-out: IC50) was 0.47 nM and the IC50 ([24]; SKM-1, KRAS (K117N), read-out: IC50) was 0.93 nM. It also gave an IC50 [25] of 1.6 nM, an IC50 ([26]; SW 948, KRAS (Q61L), read-out: IC50) of 2.9 nM and an IC50 [27] of 2.9 nM. The IC50 ([28]; KRAS (G13D), read-out: IC50) was 100 nM.
With `CCn1c(-c2cc(N3CCN(C)CC3)cnc2[C@H](C)OC)c2c3cc(ccc31)-c1csc(n1)C[C@H](NC(=O)[C@H]1C[C@@H]1C)C(=O)N1CCC[C@H](N1)C(=O)OCC(C)(C)O2` [Example A122, reference compound] the IC50 [1] was 0.55 nM, the IC50 [2] was 43 nM and the IC50 ([3]; Capan-2, KRAS (G12V), read-out: IC50) was 0.59 nM. For the same compound, the IC50 [4] was 2.5 nM, the IC50 [5] was 0.49 nM and the IC50 [6] was 100 nM. For the same compound, the IC50 [7] was 100 nM, the IC50 [8] was 0.88 nM and the IC50 [9] was 100 nM. It also gave an IC50 ([10]; MDA-MB-231) of 20 nM, an IC50 [11] of 1000 nM and an IC50 ([12]; NCI-H1573) of 1.2 nM. For the same compound, the IC50 [13] was 0.43 nM, the IC50 ([14]; NCI-H1944) was 1.7 nM and the IC50 [15] was 0.27 nM. For the same compound, the IC50 [16] was 0.16 nM, the IC50 ([17]; NOMO-1) was 0.86 nM and the IC50 ([18]; OCI-LY19) was 2.4 nM. For the same compound, the IC50 ([19]; ONS-76) was 2.1 nM, the IC50 [20] was 0.42 nM and the IC50 [21] was 1.2 nM. The IC50 [22] was 6.5 nM, the IC50 [23] was 1.9 nM and the IC50 ([24]; SKM-1) was 1.3 nM. The IC50 [25] was 1.5 nM, the IC50 [26] was 8.5 nM and the IC50 [27] was 5.9 nM. It also gave an IC50 [28] of 100 nM.
